Converted amounts (≈) assume the structure as drawn. Where two headings read alike, the source gives them in different places.
Legend:
Giardia lamblia [1] = settings: background statement, human infection; cited from earlier work
[2] = cited from earlier work
Giardia lamblia [3] = experiment: In vitro anti-Giardia lamblia activity (growth inhibition, viable cell count by hemacytometer); type: cell-based; settings: Giardia duodenalis, read-out: Anti-G. lamblia ED50
Protocol: About 1.0-2.0 ml of a nutrient medium, for example, the modified Diamond's TPS medium at pH 7.05, together with about 10% by volume of heat-inactivated serum and about 1% by volume of antibiotic-antimycotic solution is placed in each well of a multiwell plate. To this mixture, an aliquot of a suspension of G. lamblia cells containing about 10^6 organisms is added. Subsequently, each well is inoculated with a known concentration of one of the active compounds. The multiwell plate containing the individual culture samples is incubated under anaerobic conditions at about 37° C. for about 16-24 hrs. The number of viable cells remaining in each well are then counted, such as with a hemacytometer. […]
In each well of a mutliwell plate is placed 1.4 ml of media mix containing Diamond's TPS medium (see Table 2) at pH 7.05, 10% by volume of heat-inactivated fetal bovine serum, and 1% by volume of an antibiotic-antimycotic solution (see Table 3). […] The cells are resuspended in a small volume of the Diamond's medium, counted, and each well inoculated with approximately 10^6 organisms. […] After 24 hours of incubation each well is mixed and counted for viable organisms using a hemacytometer. The percentage of survival is determined by comparing the treated wells to controls treated with dimethylsulfoxide. […]

Trichomonas foetus = experiment: In vitro anti-Trichomonas foetus activity (growth inhibition, viable cell count); type: cell-based, T. foetus KV1; settings: for IC50: Tritrichomonas foetus, read-out: Anti-T. foetus ED50
T. vaginalis = experiment: anti-T. vaginalis activity; type: cell-based, Trichomonas vaginalis; settings: as shown in Table 1

## CCN(CC)CCCC(C)Nc1c2ccc(Cl)cc2nc2ccc(OC)cc12 (stereo not drawn) [Atabrine]
Giardia lamblia [1]
  treatment of giardiasis (in words): successfully treated
[2]; in vivo
  adverse side effects (in words): known to cause adverse side effects

## Cc1ncc([N+](=O)[O-])n1CCO [Flagyl, metronidazole]
Giardia lamblia [1]
  treatment of giardiasis (in words): successfully treated
[2]; in vivo
  adverse side effects (in words): known to cause adverse side effects

## [O-][n+]1ccnc(O)c1 [emimycin, 2-hydroxypyrazine-4-oxide]
Giardia lamblia [3]; effective concentration for 50% inhibition of growth, 37° C., anaerobic, about 16-24 hrs (24 hours in Example 1)
  IC50: 22 µg/mL (≈ 196 µM)
Trichomonas foetus; effective concentration for 50% inhibition of growth, 37° C., 24 hours, T. foetus KV1
  IC50: < 1 µg/mL
T. vaginalis
  anti-T. vaginalis activity (in words): active anti-T. vaginalis agents

## O=c1[nH]cc(F)c(=O)[nH]1 [fluorouracil, 5-fluoro-2,4-(1H, 3H)pyrimidenedione]
Giardia lamblia [3]
  IC50: 100 µg/mL (≈ 769 µM)
Trichomonas foetus; 37° C., 24 hours
  anti-T. foetus activity (in words): effective anti-T. foetus agent
Trichomonas foetus; 24 h
  IC50: 3 µg/mL (≈ 23.1 µM)

## O=C1OCCN1N=Cc1ccc([N+](=O)[O-])o1 [furazolidione]
Giardia lamblia [1]
  treatment of giardiasis (in words): successfully treated
[2]; background statement
  adverse side effects (in words): known to cause adverse side effects
